Data reported in US9884851B2, “Heterocycle-bisamide inhibitors of scavenger receptor BI” (THE BROAD INSTITUTE, INC., priority 2012, dated 2018).
Values after ≈ are worked out from the molar mass of the structure shown. “Also recorded” adds a separate entry of the source.

What was measured:
SR-BI = biological target: T1, SR-BI (Mus musculus, UniProt Q61009); assay: Cholesterol efflux assay; type: cell-based, murine; parameters: expressed in transfected cells; host or cells: ldlA[mSR-BI], Chinese hamster ovary (CHO) cells lacking LDL receptor (Krieger Laboratory); conditions: for inhibition of efflux of free cholesterol (in words): efflux to HDL
T1 sequence (Q61009 1-509): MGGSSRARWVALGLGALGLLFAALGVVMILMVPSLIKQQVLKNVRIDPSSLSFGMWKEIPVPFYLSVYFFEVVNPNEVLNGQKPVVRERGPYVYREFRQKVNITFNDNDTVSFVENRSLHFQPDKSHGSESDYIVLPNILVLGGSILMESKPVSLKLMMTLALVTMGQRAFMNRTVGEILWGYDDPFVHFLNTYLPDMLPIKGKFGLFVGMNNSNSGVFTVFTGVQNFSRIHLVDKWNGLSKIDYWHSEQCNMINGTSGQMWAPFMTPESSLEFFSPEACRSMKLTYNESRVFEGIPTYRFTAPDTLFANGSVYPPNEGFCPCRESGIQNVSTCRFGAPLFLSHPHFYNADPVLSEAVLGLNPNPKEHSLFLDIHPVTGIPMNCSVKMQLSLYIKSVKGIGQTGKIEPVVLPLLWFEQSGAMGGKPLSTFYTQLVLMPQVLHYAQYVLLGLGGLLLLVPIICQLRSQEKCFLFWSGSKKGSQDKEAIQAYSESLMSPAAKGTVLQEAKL
Protocol: SR-BI also mediates bidirectional flux (e.g. efflux) of unesterified or ‘free’ cholesterol (FC) between cells and HDL or other acceptors. This assay is used to determine if the compounds alter the efflux of free cholesterol to HDL.
On Day 0, 50,000 cells per well were plated in 24-well plates. On the following day, the media was removed and [^3H]cholesterol in lipoprotein-deficient media was added. On Day 1, the medium was replaced with Ham's F12 medium supplemented with 10% bovine lipoprotein deficient serum with 1 μCi/ml [1,2-^3H]cholesterol (40-60 Ci/mmol). On Day 3, the cells were washed to remove serum and incubated in Ham's F12 plus 1% fatty acid-free BSA. On Day 4, the cells were washed and pretreated with compounds for 1 hour. Subsequently, the cells were incubated for an additional 2 hours with the same concentrations of small molecules and with unlabeled HDL (final HDL concentration of 100 μg protein/ml). The medium was collected to determine released cholesterol, and the cells were lysed. The amount of [^3H]cholesterol in the medium and cells was determined using liquid scintillation counting. Total cellular [^3H]cholesterol was calculated as the sum of the radioactivity in the efflux medium plus the radioactivity in the cells and was used to calculate the [^3H]cholesterol efflux (percent of total [^3H]cholesterol released into the medium).

Solubility in PBS = type: physicochemical; conditions: PBS pH 7.4, 23° C., 1% DMSO
Protocol: We noticed that the concentration of the probe fluctuated through the course of the assay (data not shown). We believe that this fluctuation is due to the low kinetic solubility of the probe. Thus, we decided to determine the amount of undissolved probe present in the well after it was treated with PBS for a given length of time, relative to the amount of undissolved probe at the start of the assay. The wells were centrifuged and the supernatant was removed after various time points, then acetonitrile was added to dissolve the remaining solid in the wells, and the amount of probe was quantified. […] The stability of the probe was confirmed by measuring stability in human plasma, with >99% remaining after a 5-hour incubation period. […] FIG. 5 summarizes known properties of the probe.

C[C@H](C(=O)NC1CCCC1)N(C(=O)Cn1nnc(-c2ccc3c(c2)OCO3)n1)C1CCCCC1 [ML279, (R)-2-(2-(5-(Benzo[d][1,3]dioxol-5-yl)-2H-tetrazol-2-yl)-N-cyclohexylacetamido)-N-cyclopentylpropanamide]
reduction of efflux of free cholesterol from cells (SR-BI): about 50% | inhibition of efflux of free cholesterol (in words) (SR-BI): inhibiting both SR-BI-mediated uptake of cholesteryl ester from HDL and efflux of free cholesterol to HDL particles; also recorded: inhibits efflux of free cholesterol | inhibition of efflux of free cholesterol (in words) (SR-BI; listed as compound of Formula (II)): inhibit efflux of cholesterol | solubility (Solubility in PBS; listed as CID53393835): 27 µM (≈ 12.7 µg/mL) | solubility (Solubility in PBS; phosphate buffered saline, 23 °C, pH 7.4, aqueous buffer, kinetic from dmso stock): 28 µM (≈ 13.1 µg/mL)
